Experimental data from patent US9440957B2, “Compounds and compositions for modulating EGFR Activity” (Novartis AG, priority 2012, dated 2016).
Like-named read-outs stand apart in the source and are kept apart here.

Tests used:
EGFR(L858R/T790M) = molecular target: T1, EGFR(L858R/T790M) (Homo sapiens, UniProt P00533, L858R/T790M); test: EGFR biochemical assay (HTRF), IC50 determinations
T1 construct: purchased from Carna (GST-a.a. 669-1210)
Method in brief: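 HTRF kinase reaction with biotin-TK peptide at room temperature, quenched with EDTA at 60 min and detected with PT66K/SAXL after 1 h. Without preincubation, enzyme starts the reaction with compound, ATP and peptide present. With preincubation, compound, enzyme and peptide sit at room temperature for a set time before ATP is added.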

[1] = molecular target: human EGFR WT (NIH/3T3 cells, EGF-induced) (Homo sapiens, UniProt P00533); test: EGFR target modulation in engineered NIH/3T3 cell lines (phospho-EGFR Y1068 AlphaLISA), EGFR WT; type: cell-based; details: engineered NIH/3T3 cells, read-out: NIH3T3 IC50 (μM) EGFR (WT)
Method in brief: (§1)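 Read-out is phospho-Y1068 AlphaLISA on cell lysates, with anti-total EGFR at 1 nM final equilibrated 1 h at room temperature. Cells were dosed 3 h with a 12-point 1:3 series starting from a 10 μM stock. Only the WT line received 50 ng/ml EGF for 5 min.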

[2] = molecular target: human EGFR L858R (NIH/3T3 cells) (Homo sapiens, UniProt P00533, L858R); test: EGFR target modulation in engineered NIH/3T3 cell lines (phospho-EGFR Y1068 AlphaLISA), EGFR L858R; type: cell-based; details: engineered NIH/3T3 cells, read-out: NIH3T3 IC50 (μM) EGFR (L858R)
Method in brief: as §1

[3] = molecular target: human EGFR L858R/T790M (NIH/3T3 cells) (Homo sapiens, UniProt P00533, L858R/T790M); test: EGFR target modulation in engineered NIH/3T3 cell lines (phospho-EGFR Y1068 AlphaLISA), EGFR L858R/T790M; type: cell-based; details: engineered NIH/3T3 cells, read-out: NIH3T3 IC50 (μM) EGFR (L858R/T790M)
Method in brief: as §1

H1975 (EGFR L858/T790M) = H1975 (EGFR L858/T790M) (Homo sapiens, UniProt P00533, L858R/T790M); test: EGFR target modulation in H1975 cell line (phospho-EGFR Y1173 ELISA); type: cell-based
Experimental: (§2) EGFR Target Modulation in H1975, H3255 and HCC827 Cell Lines Tissue Culture. Cells were maintained in 10% FBS/RPMI supplemented with 100 μg/ml Penicillin/Streptomycin (Hyclone #SH30236.01). […] The cells were allowed to incubate overnight in a 37° C., 5% CO2 humidified tissue culture incubator. […] The serial diluted compounds were transferred to the plate containing cells by using a 50 nl Pin Head device (Perkin Elmer) and the cells were placed back in the incubator for 3 hours. Phospho-EGFR ([…]) Target Modulation Assay. The media was reduced to 20 ul using a Bio-Tek ELx 405 SelectTM plate washer. […] The plates were shaken at 4° C. for 20 minutes. An aliquot of 25 ul from each well was transferred to pEGFR(Y1173) ELISA plates for analysis. Phospho-EGFR ([…]) ELISA. Solid white high-binding ELISA plates (Greiner #781074) were coated with 5 ug/ml anti-EGFR capture antibody (R&D Systems #AF231) overnight in 50 mM carbonate/bicarbonate pH 9.5 buffer. Plates were blocked with 1% BSA (Sigma #A7030) in PBS for 1 hour at room temperature. Wash steps were carried out with a Bio-Tek ELx405 SelectTM using 4 cycles of 100 ul TBS-T (20 mM Tris, 137 mM NaCl, 0.05% Tween-20) per well. […] Lysis was allowed to occur for 20 minutes on ice. A 25 ul aliquot was added to each well of the blocked ELISA plate and incubated overnight at 4° C. with gentle shaking. […] After washing, 1:2,000 anti-rabbit-HRP (Cell Signaling #7074) in 0.2% BSA/TBS-T was added and incubated for 1 hour at room temperature. Chemiluminescent detection was carried out with SuperSignal ELISA Pico substrate (ThermoScientific #37069). Signal was read on EnVision plate reader using built-in UltraLUM setting. Data Analysis. Control cells treated with EGF were set to 100% maximum response. […] With these parameters, the IC50's for each compound in each cell line was calculated using non-linear curve fitting analysis.

H3255 (EGFR L858R) = H3255 (EGFR L858R) (Homo sapiens, UniProt P00533, L858R); test: EGFR target modulation in H3255 cell line (phospho-EGFR Y1173 ELISA); type: cell-based
Experimental: as §2

HEKn (EGFR WT) = HEKn (EGFR WT) (Homo sapiens, UniProt P00533); test: EGFR target modulation in HEKn (EGFR-WT) cell line (phospho-EGFR Y1173 ELISA); type: cell-based; details: value outside parentheses
Experimental: EGFR Target Modulation in HEKn (EGFR-WT) Cell Line Tissue Culture. Human neonatal epithelial keratinocytes (Invitrogen #C-001-5C) were maintained in EpiLife media (Invitrogen #[…]) supplemented with growth factors (Invitrogen #S-001-5). Cells were harvested with 0.05% Trypsin/EDTA (Hyclone #SH30236.01) and quenched with 5% FBS/EpiLife media. […] The serial diluted compounds were transferred to the plate containing cells by using a 50 nl Pin Head device (Perkin Elmer) and the cells were placed back in the incubator for 3 hours. […] Phospho-EGFR (Y1173) ELISA. Solid white high-binding ELISA plates (Greiner #781074) were coated with 5 ug/ml anti-EGFR capture antibody (R&D Systems #AF231) overnight in 50 mM carbonate/bicarbonate pH 9.5 buffer. […] Wash steps were carried out with a Bio-Tek ELx405 SelectTM using 4 cycles of 100 ul TBS-T (20 mM Tris, 137 mM NaCl, 0.05% Tween-20) per well. […] Lysis was allowed to occur for 20 minutes on ice. A 25 ul aliquot was added to each well of the blocked ELISA plate and incubated overnight at 4° C. with gentle shaking. […] After washing, 1:2,000 anti-rabbit-HRP (Cell Signaling #7074) in 0.2% BSA/TBS-T was added and incubated for 1 hour at room temperature. Chemiluminescent detection was carried out with SuperSignal ELISA Pico substrate (ThermoScientific #37069). Signal was read on EnVision plate reader using built-in UltraLUM setting. Data Analysis. Control cells treated with EGF were set to 100% maximum response. […] With these parameters, the IC50's for each compound in each cell line was calculated using non-linear curve fitting analysis.

[4] = EGFR (L858R/T790M) with 90 min pre-incubation, read-out: IC50 (μM) Column B
[5] = EGFR (L858R/T790M) with no pre-incubation, read-out: IC50 (μM) Column A

Chain of HEKn (EGFR WT) (P00533 25-1210): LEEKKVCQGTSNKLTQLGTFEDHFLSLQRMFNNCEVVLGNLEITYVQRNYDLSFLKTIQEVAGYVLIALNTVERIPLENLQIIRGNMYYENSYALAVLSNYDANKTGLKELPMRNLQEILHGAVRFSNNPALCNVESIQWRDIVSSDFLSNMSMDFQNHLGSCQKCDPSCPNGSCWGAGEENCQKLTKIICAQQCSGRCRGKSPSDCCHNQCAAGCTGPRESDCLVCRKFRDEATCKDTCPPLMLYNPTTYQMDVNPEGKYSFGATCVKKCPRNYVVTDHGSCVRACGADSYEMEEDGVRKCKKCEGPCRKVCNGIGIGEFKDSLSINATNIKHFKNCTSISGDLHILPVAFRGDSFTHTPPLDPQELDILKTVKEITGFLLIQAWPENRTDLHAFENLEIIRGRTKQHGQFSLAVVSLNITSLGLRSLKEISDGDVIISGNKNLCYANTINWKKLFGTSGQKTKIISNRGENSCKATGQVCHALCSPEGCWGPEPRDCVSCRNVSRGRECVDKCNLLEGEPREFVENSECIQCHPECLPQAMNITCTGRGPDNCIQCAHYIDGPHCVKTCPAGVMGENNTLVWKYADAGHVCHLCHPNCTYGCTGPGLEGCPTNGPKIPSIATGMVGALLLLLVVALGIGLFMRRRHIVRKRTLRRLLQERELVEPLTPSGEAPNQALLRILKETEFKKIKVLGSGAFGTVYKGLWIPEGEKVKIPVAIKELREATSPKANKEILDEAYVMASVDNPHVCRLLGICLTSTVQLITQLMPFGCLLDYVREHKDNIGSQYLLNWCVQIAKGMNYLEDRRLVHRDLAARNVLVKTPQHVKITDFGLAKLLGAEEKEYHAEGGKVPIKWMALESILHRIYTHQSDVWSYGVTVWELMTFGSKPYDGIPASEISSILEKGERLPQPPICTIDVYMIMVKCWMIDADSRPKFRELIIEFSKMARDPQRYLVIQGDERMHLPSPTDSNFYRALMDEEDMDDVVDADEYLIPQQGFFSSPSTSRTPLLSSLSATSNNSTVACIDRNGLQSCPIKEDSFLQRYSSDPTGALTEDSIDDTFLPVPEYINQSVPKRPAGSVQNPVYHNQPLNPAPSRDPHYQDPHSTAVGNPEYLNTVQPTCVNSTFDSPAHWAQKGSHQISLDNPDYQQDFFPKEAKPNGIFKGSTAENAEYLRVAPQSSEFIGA
Chain of human EGFR WT (NIH/3T3 cells, EGF-induced) (P00533 25-1210): as above
Chain of human EGFR L858R (NIH/3T3 cells) (P00533 25-1210 L858R): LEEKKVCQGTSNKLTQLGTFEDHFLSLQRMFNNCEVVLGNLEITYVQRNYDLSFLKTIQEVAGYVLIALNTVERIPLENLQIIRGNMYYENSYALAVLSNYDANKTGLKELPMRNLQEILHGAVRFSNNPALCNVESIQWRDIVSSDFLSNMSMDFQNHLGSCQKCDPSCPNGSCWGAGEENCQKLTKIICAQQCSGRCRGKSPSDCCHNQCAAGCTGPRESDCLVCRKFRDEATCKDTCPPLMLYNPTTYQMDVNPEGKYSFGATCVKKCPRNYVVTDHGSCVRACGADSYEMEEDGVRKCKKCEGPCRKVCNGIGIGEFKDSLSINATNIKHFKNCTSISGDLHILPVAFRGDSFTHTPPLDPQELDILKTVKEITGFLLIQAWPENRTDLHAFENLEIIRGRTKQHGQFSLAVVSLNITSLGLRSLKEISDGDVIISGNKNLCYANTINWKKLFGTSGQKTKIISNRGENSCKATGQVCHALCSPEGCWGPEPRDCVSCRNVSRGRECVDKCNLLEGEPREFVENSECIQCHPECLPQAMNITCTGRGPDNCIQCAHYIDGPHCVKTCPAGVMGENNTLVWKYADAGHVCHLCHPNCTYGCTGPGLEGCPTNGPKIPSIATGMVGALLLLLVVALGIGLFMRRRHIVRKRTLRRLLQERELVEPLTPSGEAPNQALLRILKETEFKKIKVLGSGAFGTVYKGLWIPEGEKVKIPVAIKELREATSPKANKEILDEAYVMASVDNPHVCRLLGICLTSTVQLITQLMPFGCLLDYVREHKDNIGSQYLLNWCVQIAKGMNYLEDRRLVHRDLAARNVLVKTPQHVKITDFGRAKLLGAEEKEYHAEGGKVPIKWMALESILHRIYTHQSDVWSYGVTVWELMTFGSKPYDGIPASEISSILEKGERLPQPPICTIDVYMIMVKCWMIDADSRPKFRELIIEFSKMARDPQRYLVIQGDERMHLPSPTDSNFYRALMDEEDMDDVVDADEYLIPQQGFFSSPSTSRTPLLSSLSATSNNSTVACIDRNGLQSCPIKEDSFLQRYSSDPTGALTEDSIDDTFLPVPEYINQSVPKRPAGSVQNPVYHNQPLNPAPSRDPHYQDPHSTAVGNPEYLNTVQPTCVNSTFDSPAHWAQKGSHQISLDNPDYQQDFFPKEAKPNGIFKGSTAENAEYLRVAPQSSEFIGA
Chain of H3255 (EGFR L858R) (P00533 25-1210 L858R): as above

Row | Compound | IC50 (EGFR(L858R/T790M); [4]) [µM] | IC50 (EGFR(L858R/T790M); [5]) [µM] | IC50 [1] [µM] | IC50 [2] [µM] | IC50 [3] [µM] | IC50 (H1975 (EGFR L858/T790M)) [µM] | IC50 (H3255 (EGFR L858R)) [µM] | IC50 (HEKn (EGFR WT)) [µM]
1 | Cc1cc(C(=O)Nc2nc3cccc(C)c3n2[C@@H]2CCCN(C(=O)/C=C/CN(C)C)C2)ccn1 [Example 17-4] | 0.006 | 0.135 | 1.4 | 0.062 | 0.058 | 0.105 | 0.156 | > 10
2 | C=CC(=O)N1CCCC[C@@H](n2c(NC(=O)c3ccnnc3)nc3cccc(Cl)c32)C1 [Example 17-15] | < 0.001 | 0.012 | 0.204 | 0.017 | 0.006 | 0.006 | 0.022 | 0.259
3 | CN(C)C/C=C/C(=O)N1CCCC[C@@H](n2c(NC(=O)c3ccnnc3)nc3cccc(Cl)c32)C1 [Example 17-16] | < 0.001 | 0.007 | 0.282 | 0.015 | 0.017 | 0.01 | 0.028 | 0.295
4 | C=CC(=O)N1CCCC[C@@H](n2c(NC(=O)c3ccnc(C)c3)nc3cccc(Cl)c32)C1 [Example 17-17] | < 0.001 | 0.004 | 0.211 | 0.008 | 0.005 | 0.003 | 0.008 | 0.176
5 | Cc1cccc2nc(NC(=O)c3ccnnc3)n(C3CCCCN(C(=O)/C=C/CN(C)C)C3)c12 (centres unmarked) [Example 17-24] | < 0.001 | 0.006 | 0.094 | 0.005 | 0.006 | 0.007 | 0.009 | 0.225
6 | Cc1cccc2nc(NC(=O)c3cccc(C(F)(F)F)c3)n(C3CCCCN(C(=O)/C=C/CN(C)C)C3)c12 (centres unmarked) [Example 17-25] | < 0.001 | < 0.002 | 0.057 | 0.002 | < 0.001 | 0.002 | 0.026 | 0.251
7 | Cc1cccc2nc(NC(=O)c3ccc(F)cc3)n(C3CCCCN(C(=O)/C=C/CN(C)C)C3)c12 (centres unmarked) [Example 17-26] | < 0.001 | 0.005 | 0.139 | 0.003 | 0.005 | 0.005 | 0.015 | 0.19
8 | Cc1cccc2nc(NC(=O)c3cccc(F)c3F)n(C3CCCCN(C(=O)/C=C/CN(C)C)C3)c12 (centres unmarked) [Example 17-27] | 0.002 | 0.021 | 0.67 | 0.012 | 0.005 | 0.012 | 0.088 | 1
9 | Cc1cccc2nc(NC(=O)c3ccc(F)cc3F)n(C3CCCCN(C(=O)/C=C/CN(C)C)C3)c12 (centres unmarked) [Example 17-28] | < 0.001 | 0.014 | 0.283 | 0.004 | 0.01 | 0.024 | 0.081 | 0.37
10 | Cc1cccc2nc(NC(=O)c3cc(F)ccc3F)n(C3CCCCN(C(=O)/C=C/CN(C)C)C3)c12 (centres unmarked) [Example 17-29] | < 0.001 | 0.02 | 0.82 | 0.028 | 0.017 | 0.093 | 0.29 | 2.61
11 | Cc1cccc2nc(NC(=O)c3ccc(F)c(F)c3)n(C3CCCCN(C(=O)/C=C/CN(C)C)C3)c12 (centres unmarked) [Example 17-30] | < 0.001 | 0.005 | 0.167 | 0.003 | 0.004 | 0.01 | 0.037 | 0.313
12 | Cc1cccc2nc(NC(=O)c3cc(F)c(F)c(F)c3)n(C3CCCCN(C(=O)/C=C/CN(C)C)C3)c12 (centres unmarked) [Example 17-33] | < 0.001 | 0.008 | 0.224 | 0.002 | 0.005 | 0.005 | 0.065 | 0.259
13 | Cc1cccc2nc(NC(=O)c3ccncc3)n(C3CCCCN(C(=O)/C=C/CN(C)C)C3)c12 (centres unmarked) [Example 17-35] | < 0.001 | 0.006 | 0.14 | 0.005 | 0.005 | 0.004 | 0.005 | 0.285
14 | Cc1cccc2nc(NC(=O)c3ccncn3)n(C3CCCCN(C(=O)/C=C/CN(C)C)C3)c12 (centres unmarked) [Example 17-37] | 0.005 | 0.062 | 1.65 | 0.032 | 0.042 | 0.128 | 0.135 | > 10
15 | Cc1cccc2nc(NC(=O)c3ccccc3)n(C3CCCCN(C(=O)/C=C/CN(C)C)C3)c12 (centres unmarked) [Example 17-40] | < 0.001 | 0.007 | 0.49 | 0.017 | 0.008 | 0.007 | 0.13 | 0.76
16 | Cc1cccc2nc(NC(=O)c3cccc(C#N)c3)n(C3CCCCN(C(=O)/C=C/CN(C)C)C3)c12 (centres unmarked) [Example 17-42] | < 0.001 | < 0.002 | 0.053 | 0.002 | 0.002 | 0.002 | 0.013 | 0.206
17 | COc1ccc(C(=O)Nc2nc3cccc(C)c3n2C2CCCCN(C(=O)/C=C/CN(C)C)C2)cn1 (centres unmarked) [Example 17-45] | < 0.001 | 0.006 | 0.057 | 0.002 | 0.003 | 0.007 | 0.003 | 0.142
18 | Cc1cccc2nc(NC(=O)c3ccc(C(F)(F)F)nc3)n(C3CCCCN(C(=O)/C=C/CN(C)C)C3)c12 (centres unmarked) [Example 17-46] | 0.005 | 0.092 | 0.057 | 0.002 | 0.031 | 0.132 | 0.005 | 0.212
19 | Cc1ccc(C(=O)Nc2nc3cccc(C)c3n2C2CCCCN(C(=O)/C=C/CN(C)C)C2)cn1 (centres unmarked) [Example 17-47] | < 0.001 | 0.009 | 0.052 | 0.002 | 0.003 | 0.017 | 0.004 | 0.186
